# Data published in patent publication US10344002B2, “Compositions and methods for treating metabolic disorders” (NuSirt Sciences, Inc., priority 2016, dated 2019).
# Test system: HepG2 liver cells
# Assay: Lipid accumulation (Oil Red Staining) in HepG2 liver cells induced with high glucose plus insulin
# Assay type: cell-based
# Details: 48 hours
# Method: Cell Culture: HepG2 liver cells were seeded with 80,000 cells per well on 24-well tissue culture plates in low glucose (5 mM) DMEM containing 10% FBS and antibiotics. After 24 hours of attachment, lipid accumulation was induced by incubating cells with high glucose (25 mM) DMEM (10% FBS, 1% Pen-Strep) plus 100 nM insulin for 48 hours. Cells were then treated with indicated concentrations of Compound 2 for an additional 48 hours.
# Compound 2 was dissolved in 100% DMSO to a stock concentration of 100 mM. This stock was further diluted to indicated concentrations in DMEM media.
# Lipid accumulation (Oil Red Staining): HepG2 liver cells were seeded and treated as described above. After 48 hours of treatment with Compound 2, lipid accumulation in HepG2 was measured via Oil Red Staining. Cells were washed with phosphate buffered saline (PBS) once, then cells were fixated with 10% formalin for 1 hour. After removal of the formalin, cells were washed with ddH2O twice, then washed with 60% isopropanol. Cells were dried completely. Cells were stained with Oil Red working solution (˜5 mM) for 25 minutes, then immediately washed with ddH2O four times, then dried completely again. Oil Red dye was eluted with 100% isopropanol and absorbance was read at 500 nm. Unstained cells plus isopropanol was used as a blank and subtracted from all readings. Data are represented as mean±SEM for each treatment group.
smiles,measurement,setting,value
CC(C)C[C@@H]1NC(N=C(N)N)=NC1=O [Compound 2],effect on fat accumulation,"HepG2, all tested concentrations (1 nM to 10 uM)",significantly reduced
same,reduction of fat accumulation (highest effect),"HepG2, high glucose (25 mM) DMEM plus 100 nM insulin, 10 nM, p<0.025",up to 40%
